pEC50: −log10 of the molar value. Entries after “also recorded” stand apart in the source; their conditions may differ. Where a name gives a salt, the structure may show the parent alone. Read-outs that look alike come from different tables or passages of the source.
Experiments:
RIPK1 = biological target: T1, RIPK1 (Homo sapiens, UniProt Q13546); assay: Streptavidin mass shift assay (photoaffinity labeling, target engagement) in I2.1 cells; assay type: cell-based; settings: particularly after 5 min of UV irradiation
T1 construct: Following incubation of I2.1 cells with the probe, irradiation to induce photocrosslinking; endogenous in cells; host or cells: I2.1 FADD-deficient Jurkat T cells (ATCC, CRL-2572)
T1 sequence (Q13546 1-671): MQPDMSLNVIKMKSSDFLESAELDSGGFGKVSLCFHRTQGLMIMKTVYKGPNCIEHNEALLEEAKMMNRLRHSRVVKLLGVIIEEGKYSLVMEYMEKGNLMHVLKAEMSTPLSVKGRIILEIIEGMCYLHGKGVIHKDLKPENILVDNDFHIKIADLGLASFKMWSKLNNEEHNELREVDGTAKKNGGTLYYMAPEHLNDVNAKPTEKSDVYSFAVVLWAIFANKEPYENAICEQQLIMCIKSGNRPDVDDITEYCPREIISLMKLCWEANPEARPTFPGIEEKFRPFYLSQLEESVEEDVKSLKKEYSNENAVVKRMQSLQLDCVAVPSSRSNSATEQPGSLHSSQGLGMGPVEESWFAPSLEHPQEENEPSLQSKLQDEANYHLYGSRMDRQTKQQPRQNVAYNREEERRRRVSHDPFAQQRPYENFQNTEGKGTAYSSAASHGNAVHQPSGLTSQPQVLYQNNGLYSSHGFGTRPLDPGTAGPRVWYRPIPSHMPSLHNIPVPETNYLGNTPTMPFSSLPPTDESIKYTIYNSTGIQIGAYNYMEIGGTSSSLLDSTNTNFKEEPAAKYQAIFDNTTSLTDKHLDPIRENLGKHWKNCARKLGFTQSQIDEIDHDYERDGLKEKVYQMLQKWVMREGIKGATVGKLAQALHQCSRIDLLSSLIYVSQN
Procedure: Target engagement was confirmed by Streptavidin mass shift assay, whereby lysates are incubated with streptavidin and subsequently separated by SDS–PAGE. The high stability of streptavidin at a range of temperatures, in various detergents and pH, in combination with the extremely high affinity for biotin means the streptavidin–biotin interaction is not separated during gel electrophoresis, resulting in a mass shift of biotin-labeled proteins in the presence of streptavidin, which can be visualized by Western blot (Figure a).
I2.1 cells were seeded in sterile six-well plates at a density of 2 × 10^6 cells per well and incubated at 37 °C overnight. 1000× stocks of the desired concentration of compound in DMSO were preprepared. […]
Cells were transferred to a microcentrifuge tube, centrifuged at 200g for 5 min, and media removed. […] Protein concentration was determined using the DC Protein Assay (Bio-Rad) in a 96-well plate as per the manufacturer’s instructions and the concentration adjusted to 1–2 mg mL^–1 using lysis buffer. […]
Samples were prepared by adding 4 μL of 4× loading buffer to 10 μL of the protein samples and boiling at 95 °C for 10 min. […] In-gel fluorescence was detected by using a Typhoon FLA 9500 biomolecular imager (750 V, 100 μm pixels). […]

[1] = system: I2.1 FADD–/– human Jurkat cells; assay: IncuCyte necroptosis assay in I2.1 cells; settings: for pEC50: read-out: EC50 (95% CI), necroptosis inhibition; for EC50 values of well-characterized necroptosis inhibitors (assay validation), in words: Figure S1e
Procedure: A cell-based assay was established to monitor necroptosis in I2.1 cells using the IncuCyte S3 live cell microscopy platform (Figure S1a). Necroptosis was induced by treatment with TNF, and Sytox Green was used to monitor membrane permeabilization over time as an indicator of progressive necroptotic cell death (Figure S1b–d), allowing determination of the EC50 of candidate necroptosis inhibitors.
I2.1 cells were seeded in a sterile 96-well plate (Greiner) at 20,000 cells per well and incubated at 37 °C overnight. The cells were treated with a final concentration of 600 pM TNF, 1 μM Sytox Green, and compounds in a dose-dependent manner. Wells containing TNF and Sytox Green served as positive control. Wells containing DMSO and Sytox Green served as a negative control. The plate was placed into an IncuCyte S3 Live Cell Analysis System (Sartorius) and readings for phase and green fluorescence were taken every hour for 24 h, with 4 images per well. The images were analyzed with IncuCyte 2021C software and the Green Integrated Intensity Per Image/Phase Area Per Image (GCU × μm^2/image/μm^2/image or GP) was exported. The background at t = 0 h was subtracted, and the linear slope (t = 3–7 h) was calculated by plotting GP against time. The percent inhibition of necroptosis was determined by normalizing to the positive and negative controls and graphing against the [compound]. EC50 values were determined using Prism 10 for each replicate, which were then used to calculate the geometric mean EC50 and associated 95% CIs.
I2.1 cells in a 96-well plate were treated with TNF to induce necroptosis, a dilution series of the candidate necroptosis inhibitor and Sytox Green to monitor cell death. Plates were placed in the IncuCyte® and imaged every hour for 24 h. Cell death was measured over time and used to determine the proportion of necroptotic cells compared to those without necroptosis induction or not treated with an inhibitor. The linear portion of the graph was used to determine an initial rate for calculation of the EC50. TNF with Sytox Green and Sytox Green alone were used as positive and negative controls, respectively. […] EC50 values are expressed as the geometric mean with a 95% confidence interval (CI) of at least three biological replicates.

[2] = system: RIPK1 Ser166 phosphorylation; assay: Western blot of RIPK1 Ser166 phosphorylation in I2.1 cells; assay type: cell-based, human; settings: for phosphorylation of RIPK1 Ser166 after TNF: prior treatment with 10 μM compound
Procedure: All compound treatments were performed with a preprepared 1000× stock of the desired concentration in DMSO and added directly to the relevant plate, with a final concentration of 0.1% DMSO on the cells. TNF (final concentration 575 pM) was added to induce necroptosis, the cells incubated for 4 h and harvested.
(§1) Cells were transferred to a microcentrifuge tube and centrifuged at 200g for 5 min, and media were removed. Cells were washed with PBS and lysed with 100 μL of lysis buffer (radioimmunoprecipitation assay lysis buffer, Sigma-Aldrich, R0278) supplemented with 1× phosphatase inhibitor cocktail 2 (Sigma, P5726) and 1× complete EDTA-free protease inhibitor cocktail (Sigma, […])) on ice for 30 min. The lysate was collected by centrifugation at 17,000g, 4 °C for 5 min, and the lysate was transferred to a new microcentrifuge tube. Protein concentration was determined using the DC Protein Assay (Bio-Rad) in a 96-well plate as per the manufacturer’s instructions and subsequently adjusted to 1 mg mL^–1 using lysis buffer. Samples were prepared by adding 4 μL of 4× loading buffer (Biorad, 161-0747) containing β-mercaptoethanol to 12 μL of protein sample and boiling at 95 °C for 10 min. 14 μL of each sample was loaded onto a 4–15% Mini-PROTEAN TGX precast gel (Biorad, 456-1086) and run in 1× running buffer (0.25 M Tris, 0.2 M glycine, 0.1% (w/v) SDS) for 1.15 h at 130 V. Either 2 μL of precision plus protein all blue prestained protein standards (Bio-Rad, 1610373) or precision plus protein dual color standards (Bio-Rad, 1610374) was used in at least one well.
Proteins were transferred onto a nitrocellulose membrane (GE Healthcare) using the Trans-Blot Turbo Transfer System (Biorad, 1704150) at 2.5 A and 25 V for 7 min. The membrane was stained with Ponceau S to confirm protein transfer prior to blocking with 5% (w/v) nonfat dried skimmed milk in TBS-T (1× Tris-buffered saline, 0.1% (v/v) Tween-20) at rt for 1 h. Staining with the desired primary antibody in 5% (w/v) nonfat dried skimmed milk in TBS-T was performed overnight at 4 °C. The blot was washed with TBS-T at rt (3 × 5 min) and stained with secondary antibody in 5% (w/v) nonfat dried skimmed milk in TBS-T for 1 h at rt. The blot was washed with TBS-T at rt (3 × 5 min), visualized with Immobilon Crescendo Western HRP substrate, and imaged using ImageQuant LAS-4000 Imaging System (Fujifilm), and the contrast normalized in Fiji.

Aurora kinase B = Aurora kinase B (Homo sapiens, UniProt Q96GD4); assay: Kinase panel screen (SelectScreen, Z-lyte); assay type: biochemical; settings: single concentration of 1 µM, % inhibition, Figure S2c
Chain of Aurora kinase B (Q96GD4 whole entry): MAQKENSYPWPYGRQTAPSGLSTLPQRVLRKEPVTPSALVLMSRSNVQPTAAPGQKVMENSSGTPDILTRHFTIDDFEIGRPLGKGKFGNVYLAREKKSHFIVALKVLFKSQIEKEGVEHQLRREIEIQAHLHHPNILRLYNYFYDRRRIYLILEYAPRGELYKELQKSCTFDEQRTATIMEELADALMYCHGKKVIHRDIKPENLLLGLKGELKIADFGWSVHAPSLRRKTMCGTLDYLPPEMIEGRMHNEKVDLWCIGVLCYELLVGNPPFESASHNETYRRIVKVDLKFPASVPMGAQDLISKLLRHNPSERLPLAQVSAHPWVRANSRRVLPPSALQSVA
Procedure: (a) Western blot analysis of RIPK1, RIPK3 and MLKL phosphorylation in HT-29 cells with treatment of necroptosis inhibitors and the 7PQ series. Results are representative of two experiments. […] Results are representative of two experiments. (c) Kinase activity panel screen. Compounds were screened at a single concentration of 1 µM at Thermofisher.
The kinase data was provided by Thermofisher SelectScreen Biochemical Kinase Profiling service using the Z-lyte technology. Each compound was profiled at […] against a representative panel of 25 kinases.

C57BL/6J mice = assay: TNF-induced SIRS murine model; settings: 5 mg/kg i.v. 15 min before TNF 0.5 mg/kg i.v.
Procedure: Male C57BL/6J mice of 18–25 g were used at the age of 6–8 weeks. Three animals were included in each experimental group. All animal experiments were carried out with the permission of the local animal ethical committee in accordance with the EU Directive (2010/63/EU), Portuguese laws (DL113/2013, 2880/2015, 260/2016), and all relevant legislations. Animals received humane care in a temperature-controlled environment with a 12 h light–dark cycle and ad libitum access to pelleted chow and water, complying with the Institute’s guidelines, and as outlined in the “Guide for the Care and Use of Laboratory Animals” prepared by the National Academy of Sciences and published by the National Institutes of Health (NIH publication 86-23 revised 1985). […] TNF was diluted in sterile PBS. […] All injections were administered intravenously (i.v.).

HT-29 cells = assay: IncuCyte necroptosis assay in HT-29 cells; assay type: cell-based, human; settings: TNF, birinapant and Z-VAD-FMK induced; Figure S1f
From the text: Wells containing TSZ served as a positive control.

[3] = system: RIPK1, RIPK3 and MLKL phosphorylation; assay: Western blot of RIPK1, RIPK3 and MLKL phosphorylation in HT-29 cells; assay type: cell-based, human; settings: TNF, birinapant and Z-VAD-FMK
Procedure: All compound treatments were performed with a preprepared 1000× stock of the desired concentration and added directly to the relevant plate with a final concentration of 0.1% DMSO on the cells. A combination of TNF (final concentration of 1.2 nM), Birinapant (final concentration 100 nM), and Z-VAD-FMK (final concentration 20 μM) was added to induce necroptosis, the cells incubated for 7 h, and harvested.
as §1, with “14 μL of each sample was loaded onto a 4–15% Mini-PROTEAN TGX precast gel (Biorad, 456-1086) and run in 1× running buffer (0.25 M Tris, 0.2 M glycine, 0.1% (w/v) SDS) for 1.15 h at 130 V. Either 2 μL of precision plus protein all blue prestained protein standards (Bio-Rad, 1610373) or precision plus protein dual color standards (Bio-Rad, 1610374) was used in at least one well.” left out

[4] = TNF-induced necroptosis, I2.1 cells, Sytox Green, geometric mean with 95% CI, at least three biological replicates

Compound: C#CCN(CCC1(C)N=N1)S(=O)(=O)c1ccc(-c2ccc3cccnc3c2)cc1 [7PQYnD, N-(2-(3-Methyl-3H-diazirin-3-yl)ethyl)-N-(prop-2-yn-1-yl)-4-(quinolin-7-yl)benzenesulfonamide]
- engagement of RIPK1 by the probe (streptavidin-shifted band) (RIPK1): Dose-dependent engagement of RIPK1
- pEC50 ([1]; Homo sapiens, Jurkat): 5.05
- fold less potent than the parent compounds AZ’902 and AZ’320 (necroptosis inhibition) ([1]; I2.1 cells): 2–5 fold
- phosphorylation of RIPK1 Ser166 after TNF [2]: blocked

Compound: CS(=O)(=O)CC1CN(S(=O)(=O)c2ccc(-c3ccc4cccnc4c3)cc2)C1 [AZ’320, 7-(4-((3-((Methylsulfonyl)methyl)azetidin-1-yl)sulfonyl)phenyl)quinoline]
- off-target activity in a panel of 25 kinases (Aurora kinase B): off–target activity observed primarily against Aurora kinase B
- effects on temperature and body weight after TNF (C57BL/6J mice): rescuing effects on temperature and body weight
- protection from TNF-induced mortality (survival) (C57BL/6J mice; 3 mice per group): completely reverted the toxic effects induced by TNF; also recorded: preventing mortality
- pEC50 ([1]; Homo sapiens, Jurkat): 5.31
- dose dependence of the effect on phosphorylation of RIPK1 Ser166 [2]: dose dependent

Compound: CC(=O)N1CC[C@H](CN(C)S(=O)(=O)c2ccc(-c3ccc4cccnc4c3)cc2)C1 [AZ’902, (S)-N-((1-Acetylpyrrolidin-3-yl)methyl)-N-methyl-4-(quinolin-7-yl)benzenesulfonamide]
- off-target activity in a panel of 25 kinases (Aurora kinase B): off–target activity observed primarily against Aurora kinase B
- necroptosis inhibition activity in HT-29 cells (HT-29 cells): confirmed
- pEC50 ([1]; Homo sapiens, Jurkat): 5.80
- dose dependence of the effect on phosphorylation of RIPK1 Ser166 [2]: dose dependent
- phosphorylation of RIPK1 Ser166 after TNF [2]: blocked

Compound: CC(C)S(=O)(=O)c1ccc2nccc(Nc3ccc4scnc4c3)c2c1 [GSK’872, reference compound]
- EC50 values of well-characterized necroptosis inhibitors (assay validation), in words ([1]; I2.1 cells): consistent with those previously reported
- phosphorylation of necrosome components (RIPK1, RIPK3, MLKL) [3]: inhibited phosphorylation of RIPK3 and MLKL but not RIPK1
- phosphorylation of RIPK1 Ser166 after TNF [2]: no inhibition

Compound: COc1nccnc1NS(=O)(=O)c1ccc(NC(=O)/C=C/c2ccc([N+](=O)[O-])s2)cc1 [NSA, Necrosulfonamide, reference compound]
- EC50 values of well-characterized necroptosis inhibitors (assay validation), in words ([1]; I2.1 cells): consistent with those previously reported
- phosphorylation of necrosome components (RIPK1, RIPK3, MLKL) [3]: retained phosphorylation of all components of the necrosome

Compound: CN1C(=O)NC(Cc2c[nH]c3c(Cl)cccc23)C1=O (centres unmarked) [Nec-1s, reference compound]
- EC50 values of well-characterized necroptosis inhibitors (assay validation), in words ([1]; I2.1 cells): consistent with those previously reported

Compound: CC(=O)N1CC[C@@H](CN(C)S(=O)(=O)c2ccc(-c3ccc4cccnc4c3)cc2)C1 [compound 1, (R)-N-((1-Acetylpyrrolidin-3-yl)methyl)-N-methyl-4-(quinolin-7-yl)benzenesulfonamide]
- pEC50 ([1]; Homo sapiens, Jurkat): 6.00

Compound: CN(C[C@H]1CCNC1)S(=O)(=O)c1ccc(-c2ccc3cccnc3c2)cc1 [compound 2, (S)-N-Methyl-N-(pyrrolidin-3-ylmethyl)-4-(quinolin-7-yl)benzenesulfonamide·HCl]
- pEC50 ([1]; Homo sapiens, Jurkat): 5.77

Compound: CC(C)(C)OC(=O)N1CC[C@H](CNC(=O)c2ccc(-c3ccc4cccnc4c3)cc2)C1 [compound 4, tert-Butyl (R)-3-((4-(Quinolin-7-yl)benzamido)methyl)pyrrolidine-1-carboxylate]
- pEC50 ([1]; Homo sapiens, Jurkat): 5.52

Compound: CC(C)(C)OC(=O)N1CC[C@@H](NC(=O)c2ccc(-c3ccc4cccnc4c3)cc2)C1 [compound 5, tert-Butyl (R)-3-(4-(Quinolin-7-yl)benzamido)pyrrolidine-1-carboxylate]
- pEC50 ([1]; Homo sapiens, Jurkat): 5.17

Compound: O=C(c1ccc(-c2ccc3cccnc3c2)cc1)N1CCOCC1 [compound 6, Morpholino(4-(quinolin-7-yl)phenyl)methanone]
- pEC50 ([1]; Homo sapiens, Jurkat): 4.64

Compound: O=C(c1ccc(-c2ccc3ccncc3c2)cc1)N1CCOCC1 [compound 7, (4-(Isoquinolin-7-yl)phenyl)(morpholino)methanone]
- EC50 (95% CI), necroptosis inhibition [1, 4]: Inactive

Compound: O=C(c1ccc(-c2ccc3cnccc3c2)cc1)N1CCOCC1 [compound 8, (4-(Isoquinolin-6-yl)phenyl)(morpholino)methanone]
- EC50 (95% CI), necroptosis inhibition [1, 4]: Inactive

Compound: O=C(c1ccc(-c2ccc3ncccc3c2)cc1)N1CCOCC1 [compound 9, Morpholino(4-(quinolin-6-yl)phenyl)methanone]
- EC50 (95% CI), necroptosis inhibition [1, 4]: Inactive

Compound: O=C(c1ccc(-c2cnc3ccccc3c2)cc1)N1CCOCC1 [compound 10, Morpholino(4-(quinolin-3-yl)phenyl)methanone]
- EC50 (95% CI), necroptosis inhibition [1, 4]: Inactive

Compound: O=C(c1ccc(-c2ccc3ccccc3n2)cc1)N1CCOCC1 [compound 11, Morpholino(4-(quinolin-2-yl)phenyl)methanone]
- EC50 (95% CI), necroptosis inhibition [1, 4]: Inactive

Compound: O=C(c1ccc(-c2ccc3nccnc3c2)cc1)N1CCOCC1 [compound 12, Morpholino(4-(quinoxalin-6-yl)phenyl)methanone]
- EC50 (95% CI), necroptosis inhibition [1, 4]: Inactive; also recorded: loss of activity

Compound: tert-Butyl(S)-3-(((N-methyl-4-(quinolin-7-yl)phenyl)sulfonamido)methyl)pyrrolidine-1-carboxylate [compound 3]
- pEC50 [1, 4]: 5.60
